Measured values from US10941152B2, “Pyrazole compounds as modulators of FSHR and uses thereof” (TOCOPHERX, INC., priority 2014, dated 2021).
pEC50: −log10 of the molar value. Each block holds one molecule with its values, some of them ahead of it.

Experiments:
[1] = biological target: T1, follicle-stimulating hormone (FSH) receptor (Rattus norvegicus, UniProt P20395); assay: Rat granulosa EC50 FSH (Assay B); format: cell-based
T1 construct: endogenous in cells; host or cells: rat granulosa cells
T1 sequence (P20395 18-692): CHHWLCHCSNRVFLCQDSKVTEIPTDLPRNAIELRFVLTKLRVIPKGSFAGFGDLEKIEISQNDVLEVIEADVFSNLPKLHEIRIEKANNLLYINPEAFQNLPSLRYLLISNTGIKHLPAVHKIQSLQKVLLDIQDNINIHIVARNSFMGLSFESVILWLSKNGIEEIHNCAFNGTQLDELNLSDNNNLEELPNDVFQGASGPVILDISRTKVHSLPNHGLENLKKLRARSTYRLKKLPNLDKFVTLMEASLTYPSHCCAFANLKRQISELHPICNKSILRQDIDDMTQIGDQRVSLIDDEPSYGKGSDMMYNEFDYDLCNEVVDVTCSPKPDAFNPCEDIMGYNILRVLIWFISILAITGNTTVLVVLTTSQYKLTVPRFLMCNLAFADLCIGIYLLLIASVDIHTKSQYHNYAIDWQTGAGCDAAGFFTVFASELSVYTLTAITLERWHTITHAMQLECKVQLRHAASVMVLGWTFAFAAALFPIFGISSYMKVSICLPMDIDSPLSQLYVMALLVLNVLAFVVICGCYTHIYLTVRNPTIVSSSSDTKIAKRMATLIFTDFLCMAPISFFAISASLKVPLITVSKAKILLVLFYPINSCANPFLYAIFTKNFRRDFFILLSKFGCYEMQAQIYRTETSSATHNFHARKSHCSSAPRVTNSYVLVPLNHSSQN
Description: Example 25. Rat granulosa EC50 FSH (Assay B)
The assay was performed pursuant to the teaching of Yanofsky et al. (2006) Allosteric activation of the follicle-stimulating hormone (FSH) receptor by selective, nonpeptide agonists (JBC 281(19): 13226-13233, which is incorporated by reference in the disclosure of the invention).

FSHR = biological target: T2, FSHR (Homo sapiens, UniProt P23945); assay: EC50 of cyclic AMP production in CHO FSHR cells + EC20 FSH (Assay A); format: cell-based; details: cyclic AMP production in CHO FSHR cells + EC20 FSH (0.265 pM), HTRF
T2 construct: expressed in transfected cells; host or cells: CHO (Cho-FSHR-LUC-1-1-43)
T2 sequence (P23945 18-695): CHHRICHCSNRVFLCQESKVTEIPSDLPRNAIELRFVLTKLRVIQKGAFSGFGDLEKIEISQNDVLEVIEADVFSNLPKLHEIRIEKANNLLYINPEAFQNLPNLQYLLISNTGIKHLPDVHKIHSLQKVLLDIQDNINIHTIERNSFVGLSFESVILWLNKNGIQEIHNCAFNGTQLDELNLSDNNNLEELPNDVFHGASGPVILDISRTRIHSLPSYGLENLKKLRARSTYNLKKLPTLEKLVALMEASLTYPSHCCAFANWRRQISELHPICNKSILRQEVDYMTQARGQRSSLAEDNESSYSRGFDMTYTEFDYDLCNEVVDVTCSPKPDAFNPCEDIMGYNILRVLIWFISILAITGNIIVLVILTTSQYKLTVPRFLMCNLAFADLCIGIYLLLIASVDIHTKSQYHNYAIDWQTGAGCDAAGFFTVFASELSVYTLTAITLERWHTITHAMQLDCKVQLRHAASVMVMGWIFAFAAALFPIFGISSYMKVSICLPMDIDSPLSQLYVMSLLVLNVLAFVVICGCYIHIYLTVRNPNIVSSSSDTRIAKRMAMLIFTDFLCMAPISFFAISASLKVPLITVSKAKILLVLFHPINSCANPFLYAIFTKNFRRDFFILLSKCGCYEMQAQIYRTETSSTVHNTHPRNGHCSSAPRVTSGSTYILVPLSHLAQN
Method in brief: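 CHO cells expressing FSHR, stimulated 1 h at 37° C with compound plus EC20 FSH (0.265 pM final) and 200 μM IBMX. cAMP measured by HTRF (665/620 nm ratio) after 1 h at room temperature; effect expressed relative to maximum response of FSH standard.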

Structure (SMILES): COc1cc2c(cc1-c1cncc(C(N)=O)c1)-c1c(c(C(=O)N(C)C(C)(C)C(N)=O)nn1-c1cc(F)cc(F)c1)CO2 [Compound 104, N-(1-amino-2-methyl-1-oxopropan-2-yl)-8-(5-carbamoylpyridin-3-yl)-1-(3,5-difluorophenyl)-7-methoxy-N-methyl-1,4-dihydrochromeno[4,3-c]pyrazole-3-carboxamide]
pEC50 [1]: < 6.30
pEC50 (FSHR): 7.00 to 8.00

Structure (SMILES): COc1cc(OC)cc(-n2nc(C(=O)N(C)C(C)(C)C)c3c2-c2cc(-c4ccn(C)n4)c(OC)cc2OC3)c1 [Compound 37, N-tert-butyl-1-(3,5-dimethoxyphenyl)-7-methoxy-N-methyl-8-(1-methyl-1H-pyrazol-3-yl)-1,4-dihydrochromeno[4,3-c]pyrazole-3-carboxamide]
pEC50 [1]: < 6.30
pEC50 (FSHR): 7.00 to 8.00

Structure (SMILES): COc1cc2c(cc1-c1cc(CO)ncc1F)-c1c(c(C(=O)N(C)C(C)(C)C)nn1-c1cc(F)cc(F)c1)CO2 [Compound 75, N-tert-butyl-1-(3,5-difluorophenyl)-8-(5-fluoro-2-(hydroxymethyl)pyridin-4-yl)-7-methoxy-N-methyl-1,4-dihydrochromeno[4,3-c]pyrazole-3-carboxamide]
pEC50 [1]: 7.00 to 8.00
pEC50 (FSHR): 7.00 to 8.00

Structure (SMILES): COc1cc2c(cc1-c1ccn(C)n1)-c1c(c(C(=O)N(C)C(C)(C)C)nn1-c1cc(C)cc(Cl)c1)CO2 [Compound 30, N-tert-butyl-1-(3-chloro-5-methylphenyl)-7-methoxy-N-methyl-8-(1-methyl-1H-pyrazol-3-yl)-1,4-dihydrochromeno[4,3-c]pyrazole-3-carboxamide]
pEC50 [1]: 6.30 to 7.00
pEC50 (FSHR): 6.30 to 7.00

Structure (SMILES): COc1cc(F)cc(-n2nc(C(=O)N3CCOCC3(C)C)c3c2-c2cc(-c4cnn(CC(=O)O)c4)c(OC)cc2OC3)c1 [Compound 89, 2-(4-(3-(3,3-dimethylmorpholine-4-carbonyl)-1-(3-fluoro-5-methoxyphenyl)-7-methoxy-1,4-dihydrochromeno[4,3-c]pyrazol-8-yl)-1H-pyrazol-1-yl)acetic acid]
pEC50 [1]: 6.30 to 7.00
pEC50 (FSHR): > 8.00

Structure (SMILES): CNC(=O)c1cc(-c2cc3c(cc2OC)OCc2c(C(=O)N(C)C(C)(C)C)nn(-c4cc(F)cc(F)c4)c2-3)cnc1N [Compound 100, 8-(6-amino-5-(methylcarbamoyl)pyridin-3-yl)-N-tert-butyl-1-(3,5-difluorophenyl)-7-methoxy-N-methyl-1,4-dihydrochromeno[4,3-c]pyrazole-3-carboxamide]
pEC50 [1]: 7.00 to 8.00
pEC50 (FSHR): > 8.00

Structure (SMILES): COc1cc2c(cc1-c1ccn(C)n1)-c1c(c(C(=O)N(C)C(C)(C)C#N)nn1-c1cc(Cl)cc(Cl)c1)CO2 [Compound 132, N-(2-cyanopropan-2-yl)-1-(3,5-dichlorophenyl)-7-methoxy-N-methyl-8-(1-methyl-1H-pyrazol-3-yl)-1,4-dihydrochromeno[4,3-c]pyrazole-3-carboxamide]
pEC50 [1]: 6.30 to 7.00
pEC50 (FSHR): 7.00 to 8.00

Structure (SMILES): COc1cc2c(cc1-c1cccc(C#N)c1F)-c1c(c(C(=O)N(C)C(C)(C)C)nn1-c1cc(Cl)cc(Cl)c1)CO2 [Compound 19, N-tert-butyl-8-(3-cyano-2-fluorophenyl)-1-(3,5-dichlorophenyl)-7-methoxy-N-methyl-1,4-dihydrochromeno[4,3-c]pyrazole-3-carboxamide]
pEC50 [1]: 6.30 to 7.00
pEC50 (FSHR): > 8.00

Structure (SMILES): COc1cc2c(cc1-c1cncc(C)c1)-c1c(c(C(=O)N(C)C(C)(C)C)nn1-c1ccsc1)CO2 [Compound 59, N-tert-butyl-7-methoxy-N-methyl-8-(5-methylpyridin-3-yl)-1-(thiophen-3-yl)-1,4-dihydrochromeno[4,3-c]pyrazole-3-carboxamide]
pEC50 [1]: < 6.30
pEC50 (FSHR): 7.00 to 8.00

Structure (SMILES): COc1cc2c(cc1-c1cnn(CCO)c1)-c1c(c(C(=O)N3CCOCC3(C)C)nn1-c1cc(F)cc(Cl)c1)CO2 [Compound 78, (1-(3-chloro-5-fluorophenyl)-8-(1-(2-hydroxyethyl)-1H-pyrazol-4-yl)-7-methoxy-1,4-dihydrochromeno[4,3-c]pyrazol-3-yl)(3,3-dimethylmorpholino)methanone]
pEC50 [1]: 7.00 to 8.00
pEC50 (FSHR): > 8.00

Structure (SMILES): COc1cc2c(cc1-c1cncc(C(N)=O)c1C)-c1c(c(C(=O)N(C)C(C)(C)C)nn1-c1cc(Cl)cc(Cl)c1)CO2 [Compound 116, N-tert-butyl-8-(5-carbamoyl-4-methylpyridin-3-yl)-1-(3,5-dichlorophenyl)-7-methoxy-N-methyl-1,4-dihydrochromeno[4,3-c]pyrazole-3-carboxamide]
pEC50 [1]: 7.00 to 8.00
pEC50 (FSHR): > 8.00

Structure (SMILES): CNC(=O)c1cncc(-c2cc3c(cc2OC)OCc2c(C(=O)N4CCOCC4(C)C)nn(-c4cc(Cl)cc(Cl)c4)c2-3)c1 [Compound 94, 5-(1-(3,5-dichlorophenyl)-3-(3,3-dimethylmorpholine-4-carbonyl)-7-methoxy-1,4-dihydrochromeno[4,3-c]pyrazol-8-yl)-N-methylnicotinamide]
pEC50 [1]: > 8.00
pEC50 (FSHR): > 8.00

Structure (SMILES): COc1cc2c(cc1-c1cncc(C#N)c1)-c1c(c(C(=O)N3CCOCC3(C)C)nn1-c1cc(F)cc(Cl)c1)CO2 [Compound 28, 5-(1-(3-chloro-5-fluorophenyl)-3-(3,3-dimethylmorpholine-4-carbonyl)-7-methoxy-1,4-dihydrochromeno[4,3-c]pyrazol-8-yl)nicotinonitrile]
pEC50 [1]: 6.30 to 7.00
pEC50 (FSHR): > 8.00

More lines, now with the values ahead:

pEC50 [1]: 7.00 to 8.00
pEC50 (FSHR): > 8.00
Structure (SMILES): COc1cc2c(cc1C1C=NN=C1C)-c1c(c(C(=O)N(C)C(C)(C)C)nn1-c1cc(Cl)cc(Cl)c1)CO2 (stereo not drawn) [Compound 141]

pEC50 [1]: 7.00 to 8.00
pEC50 (FSHR): > 8.00
Structure (SMILES): COc1cc2c(cc1-c1cn(CC(N)=O)nc1C)-c1c(c(C(=O)N(C)C(C)(C)C)nn1-c1cc(Cl)cc(Cl)c1)CO2 [Compound 142]

pEC50 [1]: 7.00 to 8.00
pEC50 (FSHR): > 8.00
Structure (SMILES): COc1cc2c(cc1-c1cc(C(N)=O)c[n+]([O-])c1)-c1c(c(C(=O)N3CCOCC3(C)C)nn1-c1cc(F)cc(F)c1)CO2 [Compound 176]

pEC50 [1]: 6.30 to 7.00
pEC50 (FSHR): > 8.00
Structure (SMILES): COc1cc2c(cc1-c1cnc(C)c(C(N)=O)c1)-c1c(c(C(=O)N(C)C(C)(C)C)nn1-c1cc(Cl)cc(Cl)c1)CO2 [Compound 170]

pEC50 [1]: 7.00 to 8.00
pEC50 (FSHR): > 8.00
Structure (SMILES): COc1cc(OC)cc(-n2nc(C(=O)N(C)C(C)(C)CCO)c3c2-c2cc(-c4cccnc4F)c(OC)cc2OC3)c1 [Compound 135, 1-(3,5-dimethoxyphenyl)-8-(2-fluoropyridin-3-yl)-N-(4-hydroxy-2-methylbutan-2-yl)-7-methoxy-N-methyl-1,4-dihydrochromeno[4,3-c]pyrazole-3-carboxamide]

pEC50 [1]: 7.00 to 8.00
pEC50 (FSHR): > 8.00
Structure (SMILES): COc1cc2c(cc1-c1cnn(C(N)=O)c1)-c1c(c(C(=O)N(C)C(C)(C)C)nn1-c1cc(Cl)cc(Cl)c1)CO2 [Compound 181, N-tert-butyl-8-(1-carbamoyl-1H-pyrazol-4-yl)-1-(3,5-dichlorophenyl)-7-methoxy-N-methyl-1,4-dihydrochromeno[4,3-c]pyrazole-3-carboxamide]

pEC50 [1]: 6.30 to 7.00
pEC50 (FSHR): > 8.00
Structure (SMILES): COC(=O)Cn1nc(C)c(-c2cc3c(cc2OC)OCc2c(C(=O)N(C)C(C)(C)C)nn(-c4cc(Cl)cc(Cl)c4)c2-3)c1C [Compound 138, methyl 2-(4-(3-(tert-butyl(methyl)carbamoyl)-1-(3,5-dichlorophenyl)-7-methoxy-1,4-dihydrochromeno[4,3-c]pyrazol-8-yl)-3,5-dimethyl-1H-pyrazol-1-yl)acetate]

pEC50 [1]: 6.30 to 7.00
pEC50 (FSHR): 7.00 to 8.00
Structure (SMILES): COc1cc2c(cc1-c1cc(=O)[nH][nH]1)-c1c(c(C(=O)N(C)C(C)(C)C)nn1-c1ccsc1)CO2 [Compound 185, N-tert-butyl-7-methoxy-N-methyl-8-(5-oxo-2,5-dihydro-1H-pyrazol-3-yl)-1-(thiophen-3-yl)-1,4-dihydrochromeno[4,3-c]pyrazole-3-carboxamide]
